Active and inactive are the calls of the source.
What was measured:
[1] = HEK293 Cytotoxicity Assay Measured in Cell-Based System Using Plate Reader - 7071-01_Inhibitor_Dose_CherryPick_Activity_Set2.; format: functional
HEK293 = test: viability loss in HEK293T cells – cell-based, ATP luminescence, cherry-pick samples, cytotoxicity control, dose response (AID 687005); format: functional; conditions: Homo sapiens;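 note: cells exposed to compound for 48 hours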
[2] = HEK-293T cell viability reduction – luminescence, B-cell screen hits, cytotoxicity control for BCR NF-kB inhibitor project, dose response (AID 489021); format: functional, cell-based;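 note: HEK-293T cells carrying an NF-kB luciferase reporter; cells exposed to compound for about 14 hours before viability readout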
[3] = M. tuberculosis H37Rv growth inhibitors, H37Rv strain (AID 1626); format: functional
[4] = cytotoxicity in MITF-independent A375 cells – cell-based, CellTiter-Glo luminescence, dry powder, set 4, counter-screen for MITF inhibitor project, dose response (AID 624364); format: functional; conditions: A-375;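 note: A375 melanoma cells are MITF independent so this is a counter screen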
[5] = viability loss in MITF-independent A375 cells – cell-based, CellTiter-Glo luminescence, dry powder, set 2, counter-screen for MITF inhibitor project, dose response (AID 624489); format: functional; conditions: A-375;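 note: actives are compounds lowering A375 viability meaning general cytotoxicity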
[6] = Potency on glucagon-like peptide 1 release, dose-response in NCI-H716 cell line, half maximal inhibitory concentration (AID 1117344); format: functional, cell-based
[7] = glucagon-like peptide-1 release potency in STC-1, concentration-response, half-maximal inhibitory concentration in the STC-1 line (AID 1117345); format: functional, cell-based
[8] = Luminescence-based cell-based high throughput dose response assay to identify activators of the DAF-12 from the parasite S. stercoralis (ssDAF-12).; format: functional
[9] = target: T1, Oxysterols receptor LXR-beta (Homo sapiens, UniProt P55055); test: LXR agonists, Gal4 luciferase reporter, dose response, counter-screen for ssDAF-12 agonist project, cell-based, luminescence, HEK293, S. stercoralis campaign (AID 720737); format: functional; conditions: read-out: IC50 (the source's name)
T1 sequence (P55055 whole entry): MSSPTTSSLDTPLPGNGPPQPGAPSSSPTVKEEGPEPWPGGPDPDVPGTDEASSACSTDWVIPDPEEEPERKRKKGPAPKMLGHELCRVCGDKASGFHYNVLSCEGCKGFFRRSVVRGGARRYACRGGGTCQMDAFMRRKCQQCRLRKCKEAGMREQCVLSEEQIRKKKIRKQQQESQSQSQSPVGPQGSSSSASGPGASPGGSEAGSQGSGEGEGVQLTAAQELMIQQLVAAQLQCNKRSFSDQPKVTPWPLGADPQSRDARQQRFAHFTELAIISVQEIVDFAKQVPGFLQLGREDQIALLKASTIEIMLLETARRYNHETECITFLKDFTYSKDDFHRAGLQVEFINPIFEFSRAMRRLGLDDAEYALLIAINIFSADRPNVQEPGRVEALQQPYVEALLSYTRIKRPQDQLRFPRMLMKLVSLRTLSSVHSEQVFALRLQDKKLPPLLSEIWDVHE

[10] = MITF: Counter assay: A375 proliferation Measured in Cell-Based System Using Plate Reader - 2084-03_Inhibitor_Dose_DryPowder_Activity_Set8.; format: functional; conditions: A-375
[11] = inhibitors of TRPM1-promoter reporter in SK-MEL-5 – cell-based, luciferase, dry powder, set 8, MITF inhibitor project, dose response (AID 624430); format: functional
[12] = MITF Orthogonal Assay: SK-MEL-5 CTG Assay Measured in Cell-Based System Using Plate Reader - 2084-02_Inhibitor_Dose_DryPowder_Activity_Set7.; format: functional
[13] = inhibition of ADAM10 peptide cleavage – biochemical, FRET peptide substrate, recombinant human ADAM10, selectivity assay for ADAM17 exosite inhibitor project, dose response (AID 743259);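 note: ADAM10 enzyme cleaving a FRET peptide substrate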
[14] = target: Disintegrin and metalloproteinase domain-containing protein 17 (Homo sapiens, UniProt P78536); test: exosite inhibitors of ADAM17, dose response, biochemical (AID 743260)
[15] = target: T2, Dual specificity protein phosphatase 6 (Rattus norvegicus, UniProt Q64346); test: inhibition of rat DUSP6 enzyme activity – biochemical, in vitro, primary screen (AID 425)
T2 sequence (Q64346 whole entry): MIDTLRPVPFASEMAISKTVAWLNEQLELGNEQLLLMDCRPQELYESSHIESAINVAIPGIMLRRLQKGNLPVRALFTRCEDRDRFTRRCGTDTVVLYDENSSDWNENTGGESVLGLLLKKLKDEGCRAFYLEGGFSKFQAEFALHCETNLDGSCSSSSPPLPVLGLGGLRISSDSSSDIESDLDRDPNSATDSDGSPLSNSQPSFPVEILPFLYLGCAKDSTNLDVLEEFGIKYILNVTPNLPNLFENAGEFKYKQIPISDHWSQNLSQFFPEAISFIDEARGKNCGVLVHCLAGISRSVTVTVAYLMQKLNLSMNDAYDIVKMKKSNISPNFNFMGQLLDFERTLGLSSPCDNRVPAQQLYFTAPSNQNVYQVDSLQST

[16] = IC50 of insulin release inhibition, rat insulinoma INS-1E line, 5 mM glucose, cell-based (AID 1117331); format: functional
[17] = SNU-C1 cell viability reduction, dose response, CellTiter-Glo luminescence (AID 1117323); format: functional, cell-based
[18] = Reduced DLD-1 viability, concentration-response, CellTiter-Glo luminescence (AID 1117352); format: functional
[19] = CellTiter-Glo luminescence survival assay, SW480 colon tumor line, concentration-response curve, half-maximal inhibitory concentration (AID 1117338); format: functional
[20] = cytotoxicity toward HCT116 cells – cell-based, CellTiter-Glo luminescence, IC50, dose response (AID 1117332); format: functional; conditions: HCT-116
[21] = cytotoxicity toward HT-29 cells – cell-based, CellTiter-Glo luminescence, IC50, dose response (AID 1117330); format: functional

Disintegrin and metalloproteinase domain-containing protein 17, sequence (P78536 whole entry, the tested form may be a part): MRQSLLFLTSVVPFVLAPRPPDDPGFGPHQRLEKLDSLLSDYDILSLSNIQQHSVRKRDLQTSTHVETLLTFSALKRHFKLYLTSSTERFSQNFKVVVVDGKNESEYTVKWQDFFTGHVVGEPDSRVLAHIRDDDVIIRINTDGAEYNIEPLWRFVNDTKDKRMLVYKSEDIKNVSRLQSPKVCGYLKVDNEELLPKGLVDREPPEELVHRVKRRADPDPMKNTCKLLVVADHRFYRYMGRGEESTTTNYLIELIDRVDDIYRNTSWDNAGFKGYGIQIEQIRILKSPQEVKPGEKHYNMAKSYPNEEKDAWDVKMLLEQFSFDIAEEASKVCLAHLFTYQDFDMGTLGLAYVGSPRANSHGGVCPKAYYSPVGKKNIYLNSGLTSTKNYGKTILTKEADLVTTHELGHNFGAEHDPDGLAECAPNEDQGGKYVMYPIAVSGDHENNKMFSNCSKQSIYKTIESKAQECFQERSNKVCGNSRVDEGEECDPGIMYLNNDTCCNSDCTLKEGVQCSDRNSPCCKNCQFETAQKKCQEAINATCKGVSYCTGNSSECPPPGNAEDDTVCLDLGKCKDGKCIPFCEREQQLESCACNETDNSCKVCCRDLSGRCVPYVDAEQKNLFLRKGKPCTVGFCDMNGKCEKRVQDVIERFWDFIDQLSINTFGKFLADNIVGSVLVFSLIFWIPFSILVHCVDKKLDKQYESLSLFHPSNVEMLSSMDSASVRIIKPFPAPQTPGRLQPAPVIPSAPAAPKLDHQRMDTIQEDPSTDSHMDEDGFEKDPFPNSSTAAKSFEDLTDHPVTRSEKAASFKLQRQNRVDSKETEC

Which results are given for `C[C@@H]1CCCCO[C@H](CN(C)Cc2ccccc2)[C@H](C)CN([C@@H](C)CO)C(=O)c2cc(NS(=O)(=O)c3cccs3)ccc2O1`?
AC50 [1]: 30.9 µM (active); AC50 (HEK293): 30.9 µM (active)

Which results are given for `Nc1ccccc1SCC(=O)Nc1nc(-c2ccccc2)cs1`?
IC50 [2]: > 80 µM (inactive); IC50 [3]: > 100 µM (active)

With `CN1CCN(C2=C(NC(=O)c3ccc(Br)cc3)C(=O)c3ccccc3C2=O)CC1` as the compound, how does the AC50 [4] read?
Its AC50 is 23.5 µM (active).

What about the AC50 [5] of the same compound?
The AC50 was 8.99 µM (active).

With `CCCCCCCCCCCC[N+](C)(C)CCOc1ccccc1` [DOMIPHEN BROMIDE] as the compound, how does the IC50 [6] read?
The IC50 was 16.2 µM (inactive).

What about the IC50 [7] of the same compound?
The IC50 was > 40 µM (inactive).

For `O=C(COn1nnc2ccc(C(F)(F)F)cc21)Nc1c(Cl)cccc1Cl`, which IC50 [8] is on record?
Its IC50 is > 67.6 µM (inactive).

What about the EC50 [9] of the same compound?
The EC50 was > 67.6 µM (inactive).

What does the source list for `O=C1c2ccccc2C(=O)N1CC(O)CN1CCOCC1` (stereo not given)?
IC50 [8]: > 67.5 µM (inactive); EC50 [9]: > 67.5 µM (inactive)

With `O=C1C(Nc2ccc(Cl)cc2)=C(N2CCCCC2)C(=O)c2ccccc21` as the compound, how does the AC50 [10] read?
Its AC50 is 26.8 µM (active).

What about the AC50 [11] of the same compound?
Its AC50 is 2.87 µM (active).

What about the AC50 [12] of the same compound?
Its AC50 is 4.38 µM (active).

For `O=C(NCC1COc2ccccc2O1)c1cccc(S(=O)(=O)N2CCN(c3ccccc3)CC2)c1` (stereo not given), which IC50 [13] is on record?
Its IC50 is > 69.5 µM (inactive).

What about the IC50 [14] of the same compound?
Its IC50 is > 69.5 µM (inactive).

Which IC50 [15] does the source give for `C[C@H]1C[C@H]2[C@@H]3CCC4=CC(=O)C=C[C@]4(C)[C@@]3(Cl)[C@@H](O)C[C@]2(C)[C@@]1(O)C(=O)CO` [BECLOMETHASONE] here?
The IC50 was > 100 µM (not active).

With `CCCC(=O)C1=C(NCCc2c(C)[nH]c3ccc(C)cc23)CCCC1=O` as the compound, how does the IC50 [3] read?
Its IC50 is > 100 µM (active).

Which IC50 [16] does the source give for `CCC(CN)=C(c1ccccc1)c1ccccc1` here?
Its IC50 is 10.8 µM (inactive).

Which results are given for `CC(C(=O)O)c1cccc(C(=O)c2ccccc2)c1` (stereo not given) [KETOPROFEN]?
IC50 [17]: 3.8 µM (active); IC50 [18]: 8.64 µM (inactive); IC50 [19]: 10.3 µM (inactive); IC50 [20]: 10.5 µM (inactive); IC50 [21]: 14.4 µM (inactive)
